Measured values as given in patent US20080286785A1, “Method to predict or monitor the response of a patient to an erbb receptor drug” (AstraZeneca UK Limited, priority 2005, published 2008).
Where two headings read alike, the source gives them in different places.

Experiments:
[1] = N. Engl. J. Med. 2004; 350(21):2129-2139; cited from earlier work
[2] = all of the patients treated with gefitinib, 250 mg daily orally
[3] = four patients with EGFR mutations detected in tumour samples
[4] = patients with EGFR mutations in serum
[5] = patients without EGFR mutations in serum
[6] = serum EGFR mutation + by EGFR Scorpion Kit
[7] = serum EGFR mutation + by direct sequence
[8] = serum EGFR mutation − by EGFR Scorpion Kit
[9] = serum EGFR mutation − by direct sequence

Compound: COc1cc2ncnc(Nc3ccc(F)c(Cl)c3)c2cc1OCCCN1CCOCC1 [gefitinib]
- patients that have a rapid and often dramatic clinical response [1]: about 10%
- Response PD (progressive disease), number of patients (NSCLC; 28 patients enrolled, RECIST): 11 n
- Response PR (partial response), number of patients (NSCLC; 28 patients enrolled, RECIST): 9 n
- Response SD (stable disease), number of patients (NSCLC; 28 patients enrolled, RECIST): 8 n
- median OS (NSCLC; [2]): 306 days
- median PFS (NSCLC; [2]): 98 days
- responses to gefitinib: PD, number of patients (NSCLC; [3]): 1
- responses to gefitinib: PR, number of patients (NSCLC; [3]): 2
- responses to gefitinib: SD, number of patients (NSCLC; [3]): 1
- median OS (NSCLC; [4]): 611 days
- median PFS (NSCLC; [4]): 200 days
- median OS (NSCLC; [5]): 232 days
- median PFS (NSCLC; [5]): 46 days
- Response to gefitinib PD, number of patients (NSCLC; [6]): 2
- Response to gefitinib PR/SD, number of patients (NSCLC; [6]): 11
- Response to gefitinib PD, number of patients (NSCLC; [7]): 2
- Response to gefitinib PR/SD, number of patients (NSCLC; [7]): 8
- Response to gefitinib PD, number of patients (NSCLC; [8]): 8
- Response to gefitinib PR/SD, number of patients (NSCLC; [8]): 6
- Response to gefitinib PD, number of patients (NSCLC; [9]): 8
- Response to gefitinib PR/SD, number of patients (NSCLC; [9]): 9
